Series [1] in a line: pH change on placing the compound into deionized water of pH 7. The format is physicochemical. The conditions noted are these: simple laboratory experiment. The text has this:
A simple laboratory experiment confirms this effect. […] However, if icosahedral Ce(NO3)6^2− (note that this ion contains no hydroxide) is placed into deionized water of pH 7, a quite remarkable pH drop to −1 can be observed. The released tetravalent cerium ions will scavenge virtually all of the available OH^− ions in solution (possibly even degrading H2O itself to obtain OH^−), resulting in this dramatic pH drop.

The conditions of series [2]: reduction to the trivalent ion, cited from earlier work; for calculated redox potential: in acidic solution, Nugent et al. 1971.
The conditions of series [3]: in water; resulting from the reported solubility product; cited from earlier work.

In the case of `O=[N+]([O-])O.O=[N+]([O-])O.O=[N+]([O-])O.O=[N+]([O-])O.O=[N+]([O-])O.O=[N+]([O-])O.[Ce]` [Ce(NO3)6^2−], in series [1], the “pH after placing into deionized water of pH 7” value is listed as −1.
Turning to `[Cr+6]` [Cr^+6, reference compound], in series [2] (in acid solution (pH 0)), the oxidation-reduction potential is reported as 1.36 V.
Turning to `[Pr+4]` [Pr^+4], in series [2], the calculated redox potential is reported as 3.2 V.
Turning to `[Tb+4]` [Tb^+4], the calculated redox potential in series [2] is given as 3.2 V.
`[Ce+4].[OH-].[OH-].[OH-].[OH-]` [ceric hydroxide, reference compound]: the cerium solubility result in series [3] is given as “approximately 5×10^−12 moles/liter Ce^+4”. Also, the “pH after placing into deionized water of pH 7” value in series [1] was “only a minor pH change”.

The record behind these values is patent publication US7291217B2, “Non-toxic corrosion-protection pigments based on rare earth elements” (University of Dayton, priority 2002, dated 2007).
